The values below come from US9073855B2, “BCL-2 selective apoptosis-inducing agents for the treatment of cancer and immune diseases” (AbbVie Inc., priority 2008, dated 2015).

For one test, the target named is GST-Bcl-2 (Homo sapiens, UniProt P10415). The test is described as follows: TR-FRET binding assay, GST-Bcl-2 with F-Bak peptide probe. Particulars: TR-FRET Binding Affinity, GST-Bcl-2, F-Bak peptide probe. Summed up: (§1)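 Displacement of a fluorescein-labelled Bak peptide from the GST-tagged protein was followed by time-resolved FRET with a terbium anti-GST donor after 3 h incubation at room temperature. Inhibition constants were calculated with Wang's equation.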
On the technique in general: TR-FRET usually uses a lanthanide donor and a delayed reading to cut background.

Another test addresses GST-Bcl-XL (Homo sapiens, UniProt Q07817). Description: TR-FRET binding assay, GST-Bcl-XL with F-Bak peptide probe. Particulars: TR-FRET Binding Affinity, GST-Bcl-XL, F-Bak peptide probe. Put shortly:
as §1

In another test the test system is Canine platelets. Description: Platelet cell viability assay (platelet-rich plasma, Cell Titer Glo). The test is classed as cell-based. Particulars: Canis lupus familiaris, 5 h, isolated canine platelets ex vivo, five hours at 37° C. On the procedure: After the incubation, platelets were equilibrated to room temperature for 20 minutes and then an equal volume of Cell Titer Glo reagent (Promega Corporation) was added. Samples were mixed for two minutes and then allowed to equilibrate for an additional 10 minutes at room temperature. The luminescence generated from the samples was quantitated using an LJL Analyst plate reader.
The effect of compounds on platelet survival can be directly evaluated ex vivo by examining the viability of isolated canine platelets in the presence of various concentrations of compound.
Background: ATP-based viability assays read luminescence as a measure of living cells.

The next test deals with FL5.12/Bcl-2 cells. The test is described as follows: FL5.12/Bcl-2 cell viability assay under IL-3 withdrawal (CellTitre Glo). It counts as cell-based, murine. Particulars: Mus musculus, IL-3 withdrawn 48 hrs, then 24 hrs with compound. Summed up:
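Viability measured by CellTitre Glo after FL5.12/Bcl-2 murine cells, starved of IL-3 for 48 hrs, were treated with compounds for another 24 hrs. Killing reflects inhibition of Bcl-2 sequestration of Bim and Puma.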

Chain of GST-Bcl-2 (P10415 whole entry): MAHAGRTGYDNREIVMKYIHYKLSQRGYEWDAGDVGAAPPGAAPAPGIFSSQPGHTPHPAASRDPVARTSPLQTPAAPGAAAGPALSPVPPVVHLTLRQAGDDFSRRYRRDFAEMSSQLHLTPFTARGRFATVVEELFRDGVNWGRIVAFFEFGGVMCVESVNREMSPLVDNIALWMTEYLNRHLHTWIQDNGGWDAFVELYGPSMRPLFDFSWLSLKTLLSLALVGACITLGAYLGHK
Chain of GST-Bcl-XL (Q07817 whole entry): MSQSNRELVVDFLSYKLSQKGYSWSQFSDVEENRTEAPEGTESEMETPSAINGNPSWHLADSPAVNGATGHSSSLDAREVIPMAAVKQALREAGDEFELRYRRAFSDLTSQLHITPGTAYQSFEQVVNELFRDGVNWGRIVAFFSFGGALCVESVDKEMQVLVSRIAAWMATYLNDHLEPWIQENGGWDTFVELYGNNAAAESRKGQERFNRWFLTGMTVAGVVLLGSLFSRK

A word on the Ki: it is the equilibrium dissociation constant of an inhibitor or competing ligand from its target. Lower therefore signals higher affinity. A word on the EC50: it is the concentration needed to bring the measured effect to its halfway point. For `O=C(NS(=O)(=O)c1ccc(NCC2CCOCC2)c([N+](=O)[O-])c1)c1ccc(N2CCN(Cc3ccccc3-c3ccc(Cl)cc3)CC2)cc1Oc1ccc2[nH]ccc2c1` [Example 40, 4-{4-[(4′-chloro-1,1′-biphenyl-2-yl)methyl]piperazin-1-yl}-2-(1H-indol-5-yloxy)-N-({3-nitro-4-[(tetrahydro-2H-pyran-4-ylmethyl)amino]phenyl}sulfonyl)benzamide], the values for the Ki on GST-Bcl-2 and at GST-Bcl-XL were 0.534 nM and above 660 nM, respectively. The results for the EC50 in the test on Canine platelets and in the test with FL5.12/Bcl-2 cells were above 50000 nM and 165 nM, respectively.
In the case of `O=C(NS(=O)(=O)c1ccc(NCC2CCOCC2)c([N+](=O)[O-])c1)c1ccc(N2CCN(Cc3ccccc3-c3ccc(Cl)cc3)CC2)cc1Oc1cccc2[nH]ccc12` [Example 45, 4-{4-[(4′-chloro-1,1′-biphenyl-2-yl)methyl]piperazin-1-yl}-2-(1H-indol-4-yloxy)-N-({3-nitro-4-[(tetrahydro-2H-pyran-4-ylmethyl)amino]phenyl}sulfonyl)benzamide], the Ki at GST-Bcl-2 was 0.828 nM; on GST-Bcl-XL it was above 660 nM. Besides, the EC50 with Canine platelets is above 50000 nM; with FL5.12/Bcl-2 cells, 139 nM.
For `CN(C)CCCNc1ccc(S(=O)(=O)NC(=O)c2ccc(N3CCN(Cc4ccccc4-c4ccc(Cl)cc4)CC3)cc2Oc2cccc3[nH]ccc23)cc1[N+](=O)[O-]` [Example 46, 4-{4-[(4′-chloro-1,1′-biphenyl-2-yl)methyl]piperazin-1-yl}-N-[(4-{[3-(dimethylamino)propyl]amino}-3-nitrophenyl)sulfonyl]-2-(1H-indol-4-yloxy)benzamide], the values for the Ki at GST-Bcl-2 and on GST-Bcl-XL were 0.159 nM and 19 nM, respectively. Besides, the EC50 in the test on Canine platelets was 30000 nM; with FL5.12/Bcl-2 cells, 41 nM.
Turning to `CC1(C)CCC(CN2CCN(c3ccc(C(=O)NS(=O)(=O)c4ccc(NCCCN5CCOCC5)c([N+](=O)[O-])c4)c(Oc4ccc5[nH]ccc5c4)c3)CC2)=C(c2ccc(Cl)cc2)C1` [Example 52, 4-(4-{[2-(4-chlorophenyl)-4,4-dimethylcyclohex-1-en-1-yl]methyl}piperazin-1-yl)-2-(1H-indol-5-yloxy)-N-({4-[(3-morpholin-4-ylpropyl)amino]-3-nitrophenyl}sulfonyl)benzamide], the Ki came to 0.239 nM on GST-Bcl-2 and 79.8 nM at GST-Bcl-XL. The results for the EC50 in the test with Canine platelets and in the test with FL5.12/Bcl-2 cells were above 50000 nM and 16 nM, respectively.
On the same counts, the results for `CN(C)CCCNc1ccc(S(=O)(=O)NC(=O)c2ccc(N3CCN(CC4=C(c5ccc(Cl)cc5)CC(C)(C)CC4)CC3)cc2Oc2ccc3[nH]ccc3c2)cc1[N+](=O)[O-]` [Example 53, 4-(4-{[2-(4-chlorophenyl)-4,4-dimethylcyclohex-1-en-1-yl]methyl}piperazin-1-yl)-N-[(4-{[3-(dimethylamino)propyl]amino}-3-nitrophenyl)sulfonyl]-2-(1H-indol-5-yloxy)benzamide] are 0.081 nM, 4.85 nM, 18300 nM and 11 nM.
On the same counts, the results for `CC1(C)CCC(c2ccc(Cl)cc2)=C(CN2CCN(c3ccc(C(=O)NS(=O)(=O)c4ccc(NCCCN5CCOCC5)c([N+](=O)[O-])c4)c(Oc4cccc5[nH]ccc45)c3)CC2)C1` [Example 54, 4-(4-{[2-(4-chlorophenyl)-5,5-dimethylcyclohex-1-en-1-yl]methyl}piperazin-1-yl)-2-(1H-indol-4-yloxy)-N-({4-[(3-morpholin-4-ylpropyl)amino]-3-nitrophenyl}sulfonyl)benzamide] are 0.757 nM, 82 nM, above 50000 nM and 64 nM.
